Results reported in US4877792A, “Heteroaryloxy-beta-carboline derivatives, their preparation and their use as medicinal agents” (Schering Aktiengesellschaft, priority 1986, dated 1989).

Assays:
benzodiazepine receptor = assay: inhibition of 3H-flunitrazepam binding in live brain, in vivo (mice); details: normally i.p., 3H-flunitrazepam i.v. after 15 min
[1] = 4-plate assay, anxiolytic activity (Boissier et al.); format: in vivo; details: Mus musculus, ip; minimum lowest dose which increases locomotor activity of punished mice; i.p.; read-out: Anxiolytic Activity MED
Description: The compounds of this invention display especially anxiolytic and anticonvulsive activities. In order to study the anxiolytic effect, the compounds were tested in the 4-plate assay according to the method by Boissier et al., Eur. J. Pharmacol. 4:145-150 ([…]). The table indicates the minimum lowest dose (MED) which increases the locomotor activity of the punished mice after i.p. treatment.

benzodiazepine receptors = assay: displacement of 3H-flunitrazepam binding, in vitro (rat brain membranes); details: 3H-flunitrazepam 1.0 nM, 0° C.

SMILES | Inhibition of 3H-Flunitrazepam Binding ED50 in vivo (benzodiazepine receptor) [mg/kg] | minimal effective dose [1] [mg/kg] | Inhibition of 3H-Flunitrazepam Binding IC50 in vitro (benzodiazepine receptors) [ng/mL]
COCc1c(C(=O)OC(C)C)ncc2[nH]c3ccc(Oc4ccc(Br)cn4)cc3c12 | 2.7 | 3.13 | 0.75
CCc1noc(-c2cc3c(cn2)[nH]c2cccc(Oc4ncccn4)c23)n1 | 2.8 | 3.13 | 0.28
